One series relates to subcutaneous glioma PDX. Kind of series: Subcutaneous PDX model of glioma (GBM1). In kind it is in vivo, nude mice. Here is the method: Fig. 2 The BBB permeability and tumor suppressor ability of GA-amide compared with TMZ. GA-amide (a) or TMZ (b) concentration in the tumor area and normal brain tissue following a single injection of GA-amide (10 mg/kg, i.v.) or TMZ (10 mg/kg, i.v.). The data are presented as the means ± SEMs (n = 3). c Western blot analysis of the expression of TrkA in mouse tumor tissues (T) and normal brain tissues (N), n = 4. d Western blot analysis of glycosylated TrkA expression in human normal brain tissues (N) and glioma tissues of different grades. e Time curve of GA-amide and TMZ treatment in a cell viability assay (MTS) in T2-4, GSC2 and T12-1 cells. f–h A PDX mouse model was established, and the mice were treated with vehicle (control, n = 9), 2 mg/kg GA-amide (n = 9), 2 mg/kg GAC (n = 9) or […] TMZ (n = 8) by i.p. injection daily for 10 days. A summary photograph is presented in (f), statistical results in (g) and the body weights of mice in (h); the mean ± SEMs are shown. n.s: P ≥ 0.05, *P < 0.05, **P < 0.01 and ***P < 0.001 compared with the control group by one-way ANOVA at each time point
Male nude mice aged 5–6 weeks were selected for establishment of the in vivo glioma mouse models. For the PDX models, the tumor sample will be soaked in HBSS solution on ice and transferred from the hospital to the laboratory. Patient-related information was shown in Supplementary Table 4). For the subcutaneous PDX models, the isometric fresh GBM tumor (GBM1) specimens were implanted s.c. into the flank of a nude mouse. Then, the mice were treated with GA-amide (2 mg/kg i.p.), gambogic acid (2 mg/kg i.p.), TMZ (65 mg/kg i.p., Selleck) or vehicle after the tumors grew to 100 mm^3. The mouse body weights were measured, and tumor volumes were calculated using the formula L × W^2/2. After treatment, the xenografts were harvested and photographed.

Another series relates to SNU5-SLC cells (GCSC). Kind of series: IC50 assay (MTS cell viability). To be noted: 48 h. In kind it is cell-based. Here is the method:
(§1) Four PDC lines (T12-1, T12-2, T2-4, T19-1) obtained from the Beijing Tiantan Hospital[53] and three GSC lines (GSC2, U87MG-SLC, U251-SLC) were established and verified in our previous work.[17] Two GCSC lines were kindly provided by Dr. Ran.[54] These cell lines were cultured in neurobasal medium (Gibco) containing 2% B27 (Gibco), 1% 100 × Antibiotic-Antimycotic (Gibco), 2 mmol/L L-glutamine (catalog SH30034.01, HyClone), 20 ng/mL bFGF (catalog 100-18B-50UG, PeproTech), 20 ng/mL EGF (catalog AF-100-15-100UG, PeproTech), and 10 μg/mL heparin (Sigma‒Aldrich). H1-NSCs obtained from D.Q. Pei’s laboratory (Guangzhou Institutes of Biomedicine and Health, Chinese Academy of Sciences, Guangzhou, China), were cultured in the same medium as the PDCs, with the addition of 1% N-2 supplement (Gibco, Thermo Fisher Scientific). The human astrocyte (HA) cell line was purchased from ScienCell and cultured in commercial astrocyte medium (catalog 1801, ScienCell) supplemented with 1% AGS (ScienCell), 2% FBS (ScienCell) and 1% P/S solution (ScienCell). Regarding the GC cell lines, U87MG cells were purchased from the American Type Culture Collection (ATCC), and U251 cells were purchased from the Cell Center of Peking Union Medical College. The GC cells were cultured in DMEM (Gibco) supplemented with 10% FBS (ScienCell) and 1% 100 × Antibiotic-Antimycotic.
(§2) Cells were seeded in 96-well plates and treated with 0, 0.03, 0.1, 0.3, 1, 3, 10, or 30 μM GA-amide (Santa Cruz) in triplicate. After 48 h of incubation, cell viability was quantified using the MTS assay, and the GA-amide cytotoxicity curve was estimated using GraphPad Prism.

In a further series the test system is T2-4 cells (PDC). Kind of series: IC50 assay (MTS cell viability). In kind it is cell-based. Conditions: Homo sapiens, T2-4, PDC, 48 h. As for the experimental part: as §1, §2
Another series deals with T19-1 cells (PDC). Briefly: IC50 assay (MTS cell viability). In kind it is cell-based. To be noted: Homo sapiens, T19-1, PDC, 48 h. As for the experimental part: as §1, §2
For another series, the system named is U251 cells (GC). Briefly: IC50 assay (MTS cell viability). To be noted: Homo sapiens, U-251, 48 h. In kind it is cell-based. Here is the method: as §1, §2
The target of series [1] is T1, His-WD2-7 (WD2 to WD7 repeats of WDR1) (Homo sapiens, UniProt O75083).
T1 construct: His; made in house; host or cells: Arctic-Express (E. coli)
Kind of series: SPR analysis (Biacore 8 K). In kind it is binding. Conditions: immobilized His-WD2-7, 25 °C, 5% DMSO. Here is the method: The binding affinities of GA-amide for its target proteins GST-WDR1, GST, and His-WD2-7 were assayed by using the SPR-based Biacore 8 K instrument (GE Healthcare). The CM5 sensor chip was used to immobilize 15,000 RU of the target protein to the sensor surface by the standard amine coupling reaction at 25 °C in PBS running buffer. Gradient concentrations of GA-amide containing 5% DMSO were injected into the channels to evaluate the binding affinity. The dissociation constants (KD values) of the GA-amide–protein complexes were calculated with Biacore 8 K Evaluation Software.
The pGEX4T-1 plasmid was used to express the GST-WDR1 and GST proteins, while the pET-28c plasmid was used to express the His-WD2-7 protein. Arctic-ExpressTM was used for the production of the GST-WDR1, GST and His-WD2-7 fusion proteins. The cultures were grown at 37 °C, and when the OD600 reached 0.5–0.8, the protein was expressed after 0.5 mM IPTG was added. After 4 h, the cells were collected and washed with cold PBS twice.
For His-WD2-7 protein purification, cells were first lysed by sonication. WD2-7 was present the precipitate and solubilized as described above. Then, the protein was loaded onto a Balanced Ni-IDA-Sepharose Cl-6B column (Novagen) and washed with Ni-IDA Washing-Buffer (20 mM Tris-HCl, 20 mM imidazole, 0.15 M NaCl, pH 8.0). […]

The subject of a further series is PDCs. Briefly: Apoptosis assay (annexin V/PI flow cytometry). To be noted: 4 h, varying concentrations. In kind it is cell-based, human. Here is the method: An apoptosis detection kit (KeyGEN BioTECH) was used for the PDC apoptosis assay. After treatment with different concentrations of GA-amide, cells were collected and resuspended in 100 µL of binding buffer with 1 µl FITC Annexin V and 1 µl PI for 15 min at room temperature in the dark. The cell suspensions were analyzed by flow cytometry within 1 h.

We go through one compound from publication PMC10630452, “The tumor-enriched small molecule gambogic amide suppresses glioma by targeting WDR1-dependent cytoskeleton remodeling” (Signal Transduction and Targeted Therapy, 2023).

T1 sequence (O75083 48-306 limits assumed): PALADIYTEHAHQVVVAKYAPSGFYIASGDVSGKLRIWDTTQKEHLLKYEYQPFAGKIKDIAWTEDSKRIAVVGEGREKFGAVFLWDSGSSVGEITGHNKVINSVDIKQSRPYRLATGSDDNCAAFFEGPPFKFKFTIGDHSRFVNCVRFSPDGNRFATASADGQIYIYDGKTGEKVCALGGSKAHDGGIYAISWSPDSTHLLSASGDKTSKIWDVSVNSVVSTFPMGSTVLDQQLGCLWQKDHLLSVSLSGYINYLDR

Turning to `CC(C)=CCC[C@]1(C)C=Cc2c(O)c3c(c(CC=C(C)C)c2O1)O[C@]12C(=C[C@@H]4CC1C(C)(C)O[C@@]2(C/C=C(/C)C(N)=O)C4=O)C3=O` [GA-amide, gambogic amide], the “body weight of mice” value in the series on subcutaneous glioma PDX (2 mg/kg i.p. daily for 10 days) is recorded as “did not cause the loss of body weight”. Besides, the “tumor volume versus control” value with subcutaneous glioma PDX (2 mg/kg i.p. daily for 10 days) is recorded as “significantly decreased compared with those in the control group”. For the same compound, the “Ki67, CD133 and cleaved caspase3 in tumor sections (immunohistology)” value with subcutaneous glioma PDX (PDX tumors at endpoint, 10 days treatment) was “decreased expression of Ki67 and the GSC marker prominin 1 (CD133) as well as an increased level of cleaved caspase3”. In addition, the “histology of liver, kidney and small intestine (H&E)” value in the series with subcutaneous glioma PDX (after GA-amide treatment) was “no discernible abnormalities”. The IC50 was determined as 962 nM in the series with SNU5-SLC cells (GCSC), 167 nM with T2-4 cells (PDC), 277 nM in the series with T19-1 cells (PDC) and 168 nM with U251 cells (GC). For the same compound, in series [1], the Kd turned out to be 46700 nM. Further, the “apoptosis (annexin V/PI)” value in the series with PDCs is reported as “significantly induced the apoptosis of PDCs in a dose-dependent manner”.
